Patent publication US12048693B2, “Substituted halo-quinoline derivatives, method of preparation and applications thereof” (Institut National de la Sante et de la Recherche Medicale …, priority 2018, dated 2024)

Experiments:
A375 = assay: Cancer cell viability, trypan blue exclusion assay; assay type: cell-based; conditions: Homo sapiens, A-375, normalized to DMSO-treated control
Protocol: (§1) The tested cancer cells are the following: human melanoma cells (A375), lung carcinoma cells (A549), prostate cancer cells (PC3), colon adenocarcinoma (HT29), pancreas carcinoma (MiaPaca 2) and breast carcinoma (MCF-7).
Cells were counted using a Malassez chamber. The average and standard deviation were calculated from triplicate experiments. Antiproliferative effects were evaluated by trypan blue exclusion assay. […] Cells were washed with PBS and detached by trypsinization, collected and colored by trypan blue.
(§2) As a comparison, cell viability was also determined and calculated as follow: Viability (%)=100−[(dead cell number/total cells)*100].

A549 = assay: Cancer cell viability, trypan blue exclusion assay; assay type: cell-based; conditions: Homo sapiens, normalized to DMSO-treated control
Protocol: (§3) Cancer Cell Proliferation Assay (A375, A549, PC3, HT-29, MiaPaca-2 and MCF-7)
as §1
(§4) Cells were counted using a Malassez chamber. The average and standard deviation were calculated from triplicate experiments. Antiproliferative effects were evaluated by trypan blue exclusion assay. Briefly, cells were seeded into 12-well plate and grown in media supplemented with indicated compound at 1 or 10 μM for 48 h or 96 h. Cells were washed with PBS and detached by trypsinization, collected and colored by trypan blue.
as §2

HT29 = assay: Cancer cell viability, trypan blue exclusion assay; assay type: cell-based; conditions: Homo sapiens, HT-29, normalized to DMSO-treated control
Protocol: as §3, §1, §4, §2

MCF-7 = assay: Cancer cell viability, trypan blue exclusion assay; assay type: cell-based; conditions: Homo sapiens, MCF7, normalized to DMSO-treated control
Protocol: as §3, §1, §4, §2

MiaPaca-2 = assay: Cancer cell viability, trypan blue exclusion assay; assay type: cell-based; conditions: Homo sapiens, MIA PaCa-2, normalized to DMSO-treated control
Protocol: as §3, §1, §4, §2

PC3 [1] = assay: Cancer cell viability, trypan blue exclusion assay; assay type: cell-based; conditions: Homo sapiens, PC-3, normalized to DMSO-treated control
Protocol: as §3, §1, §4, §2

[2] = Melanocyte viability assay (MHN); assay type: cell-based; conditions: human, MHN melanocytes, 10 μM for 96 h, normalized to DMSO-treated control, read-out: Heathly Cell Viability MHN
Protocol: Melanocyte Viability Assay (MHN)
Cell viability effects were evaluated by trypan blue exclusion assay. Briefly, cells were seeded into 12-well plate and grown in media supplemented with indicated compound at 10 μM for 96 h. Cells were washed with PBS and detached by trypsinization, collected and colored by trypan blue. Dead and living cells were counted and cell viability was calculated as follow: Viability (%)=100−[(dead cell number/total cells)*100].

melanoma cell line A375 = assay: In vitro dose response study on A375 proliferation; assay type: cell-based; conditions: Homo sapiens, A-375, 96 h, graded concentration
Protocol: The melanoma cell line A375 was treated during 96 h with graded concentration of compounds 42 and 43. At the end of the culture period, the cell concentration was determined.

PC3 [3] = assay: Cancer cell proliferation assay; assay type: cell-based, human; conditions: 10 μM, normalized to DMSO-treated control
Protocol: as §3, §1, §4
Dead and living cells were counted and proliferation was calculated as follow: Proliferation (%)=[(treated cell number/untreated cells number)*100].

Row | SMILES | viability at 10 µM (A375) [%] | viability at 10 µM (A549) [%] | viability at 10 µM (HT29) [%] | viability at 10 µM (MCF-7) [%] | viability at 10 µM (MiaPaca-2) [%] | viability at 10 µM (PC3 [1]) [%] | viability at 96 h, 10 μM [2] [%] | IC50 (melanoma cell line A375) [nM] | Cancer Cell Proliferation (PC3 [3]) [%]
1 | COCCOc1ccc(Nc2ccnc3cc(Cl)ccc23)cc1 [Compound 42, 7-chloro-N-(4-(2-methoxyethoxy)phenyl)quinolin-4-amine] | 99.3 | 99.7 | 97.3 | 97.2 | 100 | 98.9 | 99 | 420 | 
2 | COc1ccc(Nc2ccnc3cc(Cl)ccc23)cc1O [Compound 43, 7-chloro-N-(3-(hydroxy)-4-(methoxy)phenyl)quinolin-4-amine] |  | 99.8 | 85.8 | 99.6 | 97.6 | 94.6 |  | 1830 | 55.0
